Entries after “also recorded” stand apart in the source; their conditions may differ. Where two headings read alike, the source gives them in different places. Marks after values point to notes of the source that are not given here.
Columns and labels:
[1] = for Increase of maximal aqueous solubility: with a 10 fold increase in DMSO content
Experimental: 20 mg of each of the tested hybrid compounds of the present invention was dissolved in 0.2 ml of DMSO and then diluted with 200 ml, 40 ml, 20 ml and 10 ml of water to obtain a 0.1%, 0.5% 0.1% and 2.0% DMSO content in the aqueous solution, respectively. Each aqueous solution was sonicated for 2 minutes, filtered through 0.2 micron filter and centrifuged at 14,000 rpm for 3 minutes. UV-VIS spectra were obtained thereafter at 476 nm to determine the solubilized fraction of the tested hybrid compound.

[2] = system: MOG-induced EAE in NOD mice; assay: Efficacy in MOG-induced EAE in NOD mice, daily treatment from day 20 to day 70; type: in vivo; settings: for Severity of EAE (in words): compared to carboxyfullerene treated and vehicle (PBS) treated mice, Table 3, FIG. 3; for Phase II Second Peak Mean Score Disease / Phase III Third Peak Mean Score Disease / Phase IV Secondary Progressive Mean Score Disease: scale 0-5; for Cumulative Score: days 21-70; for Prevalence of Disease with score above 1.5: treated daily from day 20 after immunization to day 70; for Phase IV Secondary Progressive Mean Score Disease: day 70
Experimental: Non-obese diabetic (NOD) mice were purchased from Jackson laboratories. The mice were maintained in viral antibody-free (VAF) facility at Harvard Institutes of Medicine animal care facility and used at 10 weeks of age.
Myelin oligodendrocyte glycoprotein (MOG 35-55) was synthesized at the peptide/protein facility at the center for neurologic disease at BWH, Boston, Mass., USA.
(§1) Mice were immunized S.C. with 150 μg of MOG 35-55 peptide in […].
(§2) Pertussis toxin was given I.V. (150 ng per mouse) at the time of immunization and 48 hours later. The severity of disease was evaluated daily on the following scale: 0 for no clinical symptoms; 1 for distal tail weakness or tail atonia; 2 for impaired righting reflex and slight hind limb paralysis; 3 for complete paralysis affecting of both hind limbs; 4 for complete paralysis affecting of both hind limbs and fore limb weakness, or moribund state; and 5 for death.

[3] = system: MOG-induced EAE in NOD mice; assay: Efficacy in MOG-induced EAE in NOD mice, Compound 20 at two doses compared to NBQX, daily from day 23; type: in vivo
Experimental: as §1, §2

[4] = system: spinal cord of EAE-induced NOD mice; assay: Histological staining of spinal cord sections of EAE-induced NOD mice (Bielschowsky silver, Luxol fast blue); type: in vivo
Experimental: The attenuation of EAE progress in model animals was further tested by following pathological findings thereof in 7 μm coronal spinal cord section samples of the tested mice under cryogenic conditions. The axonal pathology analysis was performed on day 63 post-immunization by immunostaining of spinal cord sections. Spinal cord sections from mice were fixed in 4% paraformaldehyde overnight followed by 4.5% sucrose for 4 hours, then 20% sucrose for overnight at 4° C. Spinal cord sections were frozen and stored until used at −80° C.
Histological staining studies of spinal cord sections were preformed according to the Bielschowsky silver staining method, which specifically stains nerve fibers and axons so as to appear in black when observed under an optical microscope, and according to the Luxol fast blue staining method, which specifically stains myelin/myelinated axons so as to stain the myelin in blue-green while the neuron remains pink when observed under an optical microscope. Reduction in the degree of staining expresses damage to the neuron.
The Bielschowsky silver staining was performed as described before in Litchfield and Nagy, Acta Neuropathol (Berl) 2001, 101(1), pp. 17-21. Briefly, spinal cord sections were place in pre-warmed solution of 10% silver nitrate placed in a 40° C. oven and shaken for 15 minutes until sections became light brown in color, and thereafter rinsed in water. The spinal cord sections were thereafter placed back in the same ammonium silver solution and placed in a 40° C. oven for additional 30 minutes and rinse in water followed by dehydration in 95% ethyl alcohol, absolute alcohol and xylene.
The Luxol fast blue staining was perform as described before in Dolcetta et al J Neurosci Res.; 81(4):597-604. Briefly, spinal cord sections were placed in luxol fast blue solution in a 56° C. oven for 16 hours and rinsed with 95% ethyl alcohol and distilled water. Thereafter the spinal cord sections were placed in carbonate solution for 30 seconds and rinsed in water followed by dehydration in 95% ethyl alcohol, absolute alcohol and xylene. […]

[5] = 0.1% DMSO content in final aqueous solution
[6] = 0.5% DMSO content in final aqueous solution

Compound | Increase of maximal aqueous solubility [1] | Maximal aqueous concentration [1, 5] | Maximal aqueous concentration [1, 6] | Severity of EAE (in words) [2] | Phase II Second Peak Mean Score Disease ([2]; day 26) | Phase II Second Peak Mean Score Disease ([2]; day 27) | Phase III Third Peak Mean Score Disease ([2]; day 31) | Phase III Third Peak Mean Score Disease ([2]; day 38) | Cumulative Score [2] | Prevalence of Disease with score above 1.5 [2] | Phase IV Secondary Progressive Mean Score Disease [2] | other results
2,2-fullerenyl-malonic acid bis(adamantan-1-ylcarbamate-diethyleneglycol) ester [Compound 16] | 20 fold | – | – | – | – | – | – | – | – | – | – | –
2,2-fullerenyl-malonic acid bis(adamantan-1-ylcarbamate-poly(n)ethyleneglycol) ester wherein average n=10 [Compound 19] | 6 fold | 1.17 10^−5 M | 5.12 10^−5 M | – | – | – | – | – | – | – | – | Maximal aqueous concentration ([1]; 1.0% DMSO content in final aqueous solution): 6.97 10^−5 M
2,2-fullerenyl-malonic acid bis(adamantan-1-ylcarbamate-poly(n)ethyleneglycol) ester wherein average n=10 [Compound 20] | – | – | – | clearly reduce the severity of relapsing-remitting EAE; also recorded: reduction in severity of the disease | 0.70* | 0.55* | 0.60* | 0.65* | 53.0* | 4/10 | – | Severity of the disease, mean disease score (in words) ([3]; 30 μg/Kg and 300 μg/Kg, compared to NBQX treated and untreated mice, FIG. 4): reduction in severity of the disease; Death ([3]; 30 μg/Kg daily from day 23): 0/14; Phase II Second Peak Mean Score Disease ([3]; 30 μg/Kg daily from day 23, day 37): 1.60*; Phase II Second Peak Mean Score Disease ([3]; 30 μg/Kg daily from day 23, day 41): 1.50*; Phase III Secondary Progressive Mean Score Disease ([3]; 30 μg/Kg daily from day 23, day 62): 2.12*; Phase III Secondary Progressive Mean Score Disease ([3]; 30 μg/Kg daily from day 23, day 63): 2.15*; Protection from progression of chronic EAE (in words) ([3]; 30 μg/Kg daily, compared to 300 μg/Kg): significantly protect progression of chronic EAE; Death ([3]; 300 μg/Kg daily from day 23): 2/14; Phase II Second Peak Mean Score Disease ([3]; 300 μg/Kg daily from day 23, day 37): 2.25; Phase II Second Peak Mean Score Disease ([3]; 300 μg/Kg daily from day 23, day 41): 2.25; Phase III Secondary Progressive Mean Score Disease ([3]; 300 μg/Kg daily from day 23, day 62): 3.08; Phase III Secondary Progressive Mean Score Disease ([3]; 300 μg/Kg daily from day 23, day 63): 3.17; Axonal density / axonal damage in white matter of spinal cord (in words) ([4]; Bielschowsky silver impregnation, day 63 post-immunization, compared to untreated control mice, FIG. 5): reduction of EAE-derived axonal damage; also recorded: lower reduction in axonal density; Demyelination of axons in white matter of spinal cord (in words) ([4]; Luxol fast blue staining, compared to untreated control mice, FIG. 6): reduction in demyelination of axons; Progression of chronic EAE as damage to neurons (in words) ([4]; treatment initiated after disease onset, FIGS. 5 and 6): lesser damage caused to the neurons
2,2-fullerenyl-malonic acid bis(adamantan-1-ylcarbamate-tetraethyleneglycol) ester [Compound 6] | more than 2.6 fold | 1.18 10^−5 M | 1.38 10^−5 M | clearly reduce the severity of relapsing-remitting EAE; also recorded: reduction in severity of the disease | 0.75* | 0.80 | 0.90* | 1.30 | 90.6 | 9/10 | 2.85 | Maximal aqueous concentration ([1]; 2.0% DMSO content in final aqueous solution): 0.036 mg/mL
O=C(O)C1(C(=O)O)C2=C1C1C3C4=c5c6c7c8c(c9c(c%10c%11c%12c%13c%14c%15c%16c(c2c3c%16c5c%14c6c%12c%108)C=CC%152C(C(=O)O)(C(=O)O)C%132C=C%11)C9(C(=O)O)C(=O)O)C2C=CC1C4C72 (stereo not drawn) [Carboxyfullerene, C3-stereoisomer of trimalonic acid derivative of a C60 fullerene, reference compound] | – | – | – | – | 1.00 | 0.85 | 1.15 | 1.45 | 87.45 | 8/10 | 2.65 | –
NS(=O)(=O)c1cccc2c1c([N+](=O)[O-])cc1nc(O)c(O)nc12 [NBQX, 2,3-dihydroxy-6-nitro-7-sulfamoyl-benzo(f)quinoxaline, reference compound] | – | – | – | – | – | – | – | – | – | – | – | Death ([3]; 30 mg/Kg daily from day 23): 6/14; Phase II Second Peak Mean Score Disease ([3]; 30 mg/Kg daily from day 23, day 37): 1.75; Phase II Second Peak Mean Score Disease ([3]; 30 mg/Kg daily from day 23, day 41): 1.88; Phase III Secondary Progressive Mean Score Disease ([3]; 30 mg/Kg daily from day 23, day 62): 3.31; Phase III Secondary Progressive Mean Score Disease ([3]; 30 mg/Kg daily from day 23, day 63): 3.38; Suppression of the second phase of EAE (in words) ([3]; 30 mg/Kg, Table 4, FIG. 4): showed a tendency to suppress the second phase of EAE; Preventing the chronic disease progression (in words) ([3]; NBQX 30 mg/Kg compared to Compound 20 at 30 and 300 μg/Kg): not as effective as the Compound 20

— patent publication US20100144868A1, “Novel Neuroprotective Compounds and Uses Thereof” (Ramot At Aviv University Ltd., priority 2005, published 2010)
